From ChEMBL document CHEMBL5154753, “Discovery and Structural Optimization of Toddacoumalone Derivatives as Novel PDE4 Inhibitors for the Topical Treatment of Psoriasis” (J Med Chem, 2022)
The source made the active and inactive calls. No cut-off for these calls is given here.

Tests used:
[1] = target: Voltage-gated inwardly rectifying potassium channel KCNH2 (Homo sapiens, UniProt Q12809); test: Inhibition of hERG by Q patch automated patch-clamp method; format: toxicity
Mus musculus [2] = species on record: Mus musculus; test: Anti-psoriatic activity in IMQ-induced BALB/c psoriasis mouse model assessed as reduction in epidermal cell proliferation at 62.5 mg as 2% ointment, TOP daily for 7 days by Ki67+ expression based immunohistochemistry analysis; format: functional, organism-based; conditions: time 7.0 day
[3] = target: cGMP-inhibited 3',5'-cyclic phosphodiesterase 3A (Homo sapiens, UniProt Q14432); test: Inhibition of PDE3A (679 to 1087 residues) (unknown origin) expressed in Escherichia coli BL21 using [3H-GMP] or [3H-AMP] as substrate incubated for 15 mins by liquid scintillation counting method
Sequence of cGMP-inhibited 3',5'-cyclic phosphodiesterase 3A (Q14432 whole entry, the tested form may be a part): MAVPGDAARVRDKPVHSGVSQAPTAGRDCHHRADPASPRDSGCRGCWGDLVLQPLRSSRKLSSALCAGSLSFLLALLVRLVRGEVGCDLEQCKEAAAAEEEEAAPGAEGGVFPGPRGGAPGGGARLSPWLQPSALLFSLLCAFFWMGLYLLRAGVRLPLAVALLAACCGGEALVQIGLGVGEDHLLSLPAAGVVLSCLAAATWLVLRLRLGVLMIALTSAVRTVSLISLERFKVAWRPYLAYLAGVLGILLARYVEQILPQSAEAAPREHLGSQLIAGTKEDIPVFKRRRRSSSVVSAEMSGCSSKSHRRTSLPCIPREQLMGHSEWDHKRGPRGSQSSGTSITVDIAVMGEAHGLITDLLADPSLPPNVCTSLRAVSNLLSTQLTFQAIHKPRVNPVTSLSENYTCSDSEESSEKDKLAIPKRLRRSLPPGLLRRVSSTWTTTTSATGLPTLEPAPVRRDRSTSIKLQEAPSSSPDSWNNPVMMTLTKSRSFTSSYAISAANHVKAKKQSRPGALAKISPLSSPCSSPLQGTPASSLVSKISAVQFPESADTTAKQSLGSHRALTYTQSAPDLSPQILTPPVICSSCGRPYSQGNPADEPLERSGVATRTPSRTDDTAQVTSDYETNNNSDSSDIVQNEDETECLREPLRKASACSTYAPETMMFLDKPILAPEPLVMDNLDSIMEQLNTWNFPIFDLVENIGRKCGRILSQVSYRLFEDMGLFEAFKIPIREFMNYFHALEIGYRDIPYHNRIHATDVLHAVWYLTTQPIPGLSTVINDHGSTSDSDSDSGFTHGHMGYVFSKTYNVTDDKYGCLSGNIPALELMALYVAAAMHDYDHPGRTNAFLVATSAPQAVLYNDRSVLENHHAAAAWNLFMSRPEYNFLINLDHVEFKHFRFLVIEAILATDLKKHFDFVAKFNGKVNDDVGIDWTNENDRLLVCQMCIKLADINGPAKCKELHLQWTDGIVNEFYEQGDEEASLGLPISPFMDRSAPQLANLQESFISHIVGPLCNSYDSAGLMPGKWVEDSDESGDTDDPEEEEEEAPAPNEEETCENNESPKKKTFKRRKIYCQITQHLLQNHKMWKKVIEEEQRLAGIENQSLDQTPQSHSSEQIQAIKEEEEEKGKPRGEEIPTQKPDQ

Mus musculus [4] = species on record: Mus musculus; test: Anti-psoriatic activity in IMQ-induced BALB/c psoriasis mouse model assessed as change in skin thickness at 62.5 mg as 2% ointment, TOP daily for 7 days by hematoxylin and eosin staining based confocal laser scanning microscopy; format: functional, organism-based; conditions: time 7.0 day
[5] = Stability in rat liver microsomes assessed as half life measure upto 45 mins in presence of NADPH by LC-MS analysis; format: ADME, Microsome
[6] = Cmax in ICR mouse at 30 mg/kg, po measured upto 24 hrs by LC-MS/MS analysis; format: ADME, organism-based; design: time < 24 hrs, dose 30 mg/kg, route po; conditions: in vivo
Mus musculus [7] = test: Anti-psoriatic activity in IMQ-induced BALB/c psoriasis mouse model assessed as reduction in scales score at 10 mg/kg, po for 7 days; format: functional, organism-based; conditions: time 7.0 day
Mus musculus [8] = species on record: Mus musculus; test: Anti-psoriatic activity in IMQ-induced BALB/c psoriasis mouse model assessed as reduction in epidermal cell proliferation at 62.5 mg as 4% ointment, TOP daily for 7 days by Ki67+ expression based immunohistochemistry analysis; format: functional, organism-based; conditions: time 7.0 day
[9] = AUC (0 to t) in ICR mouse at 30 mg/kg, po measured upto 24 hrs by LC-MS/MS analysis; format: ADME, organism-based; design: time < 24 hrs, dose 30 mg/kg, route po; conditions: in vivo
Mus musculus [10] = species on record: Mus musculus; test: Anti-psoriatic activity in IMQ-induced BALB/c psoriasis mouse model assessed as reduction in scales score at 62.5 mg as 4% ointment, TOP daily and measured upto 7 days; format: functional, organism-based; conditions: time <= 7.0 day, DDE = dose-dependent effect
[11] = Stability in mouse liver microsomes assessed as half life measure upto 45 mins in presence of NADPH by LC-MS analysis; format: ADME, Microsome
[12] = target: 3',5'-cyclic-AMP phosphodiesterase 4B (Homo sapiens, UniProt Q07343); test: Inhibition of PDE4B2 (152 to 487 residues) (unknown origin) expressed in Escherichia coli BL21 using [3H-GMP] or [3H-AMP] as substrate incubated for 15 mins by liquid scintillation counting method
Sequence of 3',5'-cyclic-AMP phosphodiesterase 4B (Q07343 whole entry, the tested form may be a part): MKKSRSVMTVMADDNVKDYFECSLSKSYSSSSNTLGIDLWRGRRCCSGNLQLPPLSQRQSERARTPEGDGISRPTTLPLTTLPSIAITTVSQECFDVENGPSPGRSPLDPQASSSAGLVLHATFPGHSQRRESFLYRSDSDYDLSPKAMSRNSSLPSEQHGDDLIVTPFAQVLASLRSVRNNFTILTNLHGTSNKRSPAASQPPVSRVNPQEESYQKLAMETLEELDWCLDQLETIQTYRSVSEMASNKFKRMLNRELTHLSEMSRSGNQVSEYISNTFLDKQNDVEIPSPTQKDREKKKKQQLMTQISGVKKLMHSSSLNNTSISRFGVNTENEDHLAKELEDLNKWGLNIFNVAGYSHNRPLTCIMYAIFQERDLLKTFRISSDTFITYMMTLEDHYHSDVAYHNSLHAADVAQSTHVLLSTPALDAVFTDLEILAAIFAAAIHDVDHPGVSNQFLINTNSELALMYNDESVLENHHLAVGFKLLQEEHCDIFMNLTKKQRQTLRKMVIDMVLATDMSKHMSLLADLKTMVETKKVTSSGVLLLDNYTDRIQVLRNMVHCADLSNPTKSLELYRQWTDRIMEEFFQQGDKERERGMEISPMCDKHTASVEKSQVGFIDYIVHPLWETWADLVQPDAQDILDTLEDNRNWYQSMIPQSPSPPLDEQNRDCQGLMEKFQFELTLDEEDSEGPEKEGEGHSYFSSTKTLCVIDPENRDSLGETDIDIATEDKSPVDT

[13] = AUC (0 to t) in ICR mouse at 10 mg/kg, iv measured upto 24 hrs by LC-MS/MS analysis; format: ADME, organism-based; design: dose 10 mg/kg, time < 24 hrs, route iv; conditions: in vivo
Mus musculus [14] = species on record: Mus musculus; test: Anti-psoriatic activity in IMQ-induced BALB/c psoriasis mouse model assessed as reduction in erythema score at 62.5 mg as 4% ointment, TOP daily and measured upto 7 days; format: functional, organism-based; conditions: time <= 7.0 day, DDE = dose-dependent effect
[15] = target: cAMP and cAMP-inhibited cGMP 3',5'-cyclic phosphodiesterase 10A (Homo sapiens, UniProt Q9Y233); test: Inhibition of PDE10A2 (449 to 770 residues) (unknown origin) expressed in Escherichia coli BL21 using [3H-GMP] or [3H-AMP] as substrate incubated for 15 mins by liquid scintillation counting method
Sequence of cAMP and cAMP-inhibited cGMP 3',5'-cyclic phosphodiesterase 10A (Q9Y233 whole entry, the tested form may be a part): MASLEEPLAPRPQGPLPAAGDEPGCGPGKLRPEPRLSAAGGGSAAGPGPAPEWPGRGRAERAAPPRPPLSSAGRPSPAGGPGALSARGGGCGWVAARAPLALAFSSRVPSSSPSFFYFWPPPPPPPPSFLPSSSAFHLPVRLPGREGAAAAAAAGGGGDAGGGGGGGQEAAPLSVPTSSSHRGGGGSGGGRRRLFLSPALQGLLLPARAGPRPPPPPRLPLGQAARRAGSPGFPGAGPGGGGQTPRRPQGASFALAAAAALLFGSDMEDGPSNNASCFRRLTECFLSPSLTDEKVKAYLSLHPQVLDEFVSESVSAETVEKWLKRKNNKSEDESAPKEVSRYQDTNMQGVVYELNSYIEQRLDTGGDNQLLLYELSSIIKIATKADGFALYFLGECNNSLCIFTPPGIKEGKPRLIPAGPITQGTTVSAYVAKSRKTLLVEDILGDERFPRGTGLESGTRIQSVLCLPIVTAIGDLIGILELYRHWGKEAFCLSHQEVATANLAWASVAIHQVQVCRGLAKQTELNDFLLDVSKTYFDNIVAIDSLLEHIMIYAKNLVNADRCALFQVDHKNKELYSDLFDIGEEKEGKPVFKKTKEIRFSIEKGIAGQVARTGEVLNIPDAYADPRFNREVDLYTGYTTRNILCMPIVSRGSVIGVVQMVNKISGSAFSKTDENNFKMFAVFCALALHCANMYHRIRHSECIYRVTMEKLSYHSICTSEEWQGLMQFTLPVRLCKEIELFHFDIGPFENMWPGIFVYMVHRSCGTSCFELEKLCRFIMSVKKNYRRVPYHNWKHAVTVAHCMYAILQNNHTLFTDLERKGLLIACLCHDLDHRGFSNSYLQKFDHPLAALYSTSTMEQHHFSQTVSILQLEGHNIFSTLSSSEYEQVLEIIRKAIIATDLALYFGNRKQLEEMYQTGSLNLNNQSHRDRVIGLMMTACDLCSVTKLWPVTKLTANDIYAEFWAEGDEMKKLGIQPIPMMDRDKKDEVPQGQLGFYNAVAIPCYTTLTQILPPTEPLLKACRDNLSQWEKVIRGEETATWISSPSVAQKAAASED

[16] = target: 3',5'-cyclic-AMP phosphodiesterase 4D (Homo sapiens, UniProt Q08499); test: Inhibition of PDE4D2 (86 to 413 residues) (unknown origin) expressed in Escherichia coli BL21 using [3H-GMP] or [3H-AMP] as substrate incubated for 15 mins by liquid scintillation counting method
Sequence of 3',5'-cyclic-AMP phosphodiesterase 4D (Q08499 whole entry, the tested form may be a part): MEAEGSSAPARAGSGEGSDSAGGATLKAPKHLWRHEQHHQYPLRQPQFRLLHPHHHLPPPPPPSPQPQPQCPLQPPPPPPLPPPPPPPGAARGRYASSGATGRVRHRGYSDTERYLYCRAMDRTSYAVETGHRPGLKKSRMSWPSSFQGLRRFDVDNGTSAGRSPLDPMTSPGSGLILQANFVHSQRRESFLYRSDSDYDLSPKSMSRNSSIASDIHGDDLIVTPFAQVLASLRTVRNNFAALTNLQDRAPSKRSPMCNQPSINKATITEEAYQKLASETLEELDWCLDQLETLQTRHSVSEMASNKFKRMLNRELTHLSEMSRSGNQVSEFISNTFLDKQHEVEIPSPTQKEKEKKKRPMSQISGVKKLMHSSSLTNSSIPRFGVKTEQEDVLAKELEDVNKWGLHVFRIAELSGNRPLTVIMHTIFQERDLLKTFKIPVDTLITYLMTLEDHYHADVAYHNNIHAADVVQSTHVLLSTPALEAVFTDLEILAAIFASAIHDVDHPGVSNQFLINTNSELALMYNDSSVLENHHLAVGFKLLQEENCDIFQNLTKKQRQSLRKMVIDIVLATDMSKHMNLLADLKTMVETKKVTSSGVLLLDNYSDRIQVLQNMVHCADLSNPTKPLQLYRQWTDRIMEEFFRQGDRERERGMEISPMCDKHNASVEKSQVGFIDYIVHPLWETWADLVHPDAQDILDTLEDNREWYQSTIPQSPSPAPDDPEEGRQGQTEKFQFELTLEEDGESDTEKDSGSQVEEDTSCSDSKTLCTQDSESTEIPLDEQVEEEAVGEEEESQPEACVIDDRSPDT

Mus musculus [17] = species on record: Mus musculus; test: Anti-psoriatic activity in IMQ-induced BALB/c psoriasis mouse model assessed as reduction IMQ- induced immune response by measuring spleen weight loss at 62.5 mg as 4% ointment, TOP daily and measured upto 7 days; format: functional, organism-based; conditions: time <= 7.0 day
Mus musculus [18] = species on record: Mus musculus; test: Anti-psoriatic activity in IMQ-induced BALB/c psoriasis mouse model assessed as reduction in thickness score at 62.5 mg as 4% ointment, TOP daily and measured upto 7 days; format: functional, organism-based; conditions: time <= 7.0 day, DDE = dose-dependent effect
Mus musculus [19] = species on record: Mus musculus; test: Anti-psoriatic activity in IMQ-induced BALB/c psoriasis mouse model assessed as reduction in dermal cell proliferation at 62.5 mg as 2% ointment, TOP daily for 7 days by Ki67+ expression based immunohistochemistry analysis; format: functional, organism-based; conditions: time 7.0 day
[20] = AUC (0 to infinity) in ICR mouse at 30 mg/kg, po measured upto 24 hrs by LC-MS/MS analysis; format: ADME, organism-based; design: dose 30 mg/kg, time < 24 hrs, route po; conditions: in vivo
[21] = Volume of distribution at steady state in ICR mouse at 10 mg/kg, iv measured upto 24 hrs by LC-MS/MS analysis; format: ADME, organism-based; conditions: in vivo, read-out: Vdss
[22] = Toxicity in BALB/c mouse assessed as body weight loss at 62.5 mg as 2% ointment, TOP daily and measured upto 7 days; conditions: in vivo, topical_or_ocular, 168 h, time < 7 day

Sequence of Voltage-gated inwardly rectifying potassium channel KCNH2 (Q12809 whole entry): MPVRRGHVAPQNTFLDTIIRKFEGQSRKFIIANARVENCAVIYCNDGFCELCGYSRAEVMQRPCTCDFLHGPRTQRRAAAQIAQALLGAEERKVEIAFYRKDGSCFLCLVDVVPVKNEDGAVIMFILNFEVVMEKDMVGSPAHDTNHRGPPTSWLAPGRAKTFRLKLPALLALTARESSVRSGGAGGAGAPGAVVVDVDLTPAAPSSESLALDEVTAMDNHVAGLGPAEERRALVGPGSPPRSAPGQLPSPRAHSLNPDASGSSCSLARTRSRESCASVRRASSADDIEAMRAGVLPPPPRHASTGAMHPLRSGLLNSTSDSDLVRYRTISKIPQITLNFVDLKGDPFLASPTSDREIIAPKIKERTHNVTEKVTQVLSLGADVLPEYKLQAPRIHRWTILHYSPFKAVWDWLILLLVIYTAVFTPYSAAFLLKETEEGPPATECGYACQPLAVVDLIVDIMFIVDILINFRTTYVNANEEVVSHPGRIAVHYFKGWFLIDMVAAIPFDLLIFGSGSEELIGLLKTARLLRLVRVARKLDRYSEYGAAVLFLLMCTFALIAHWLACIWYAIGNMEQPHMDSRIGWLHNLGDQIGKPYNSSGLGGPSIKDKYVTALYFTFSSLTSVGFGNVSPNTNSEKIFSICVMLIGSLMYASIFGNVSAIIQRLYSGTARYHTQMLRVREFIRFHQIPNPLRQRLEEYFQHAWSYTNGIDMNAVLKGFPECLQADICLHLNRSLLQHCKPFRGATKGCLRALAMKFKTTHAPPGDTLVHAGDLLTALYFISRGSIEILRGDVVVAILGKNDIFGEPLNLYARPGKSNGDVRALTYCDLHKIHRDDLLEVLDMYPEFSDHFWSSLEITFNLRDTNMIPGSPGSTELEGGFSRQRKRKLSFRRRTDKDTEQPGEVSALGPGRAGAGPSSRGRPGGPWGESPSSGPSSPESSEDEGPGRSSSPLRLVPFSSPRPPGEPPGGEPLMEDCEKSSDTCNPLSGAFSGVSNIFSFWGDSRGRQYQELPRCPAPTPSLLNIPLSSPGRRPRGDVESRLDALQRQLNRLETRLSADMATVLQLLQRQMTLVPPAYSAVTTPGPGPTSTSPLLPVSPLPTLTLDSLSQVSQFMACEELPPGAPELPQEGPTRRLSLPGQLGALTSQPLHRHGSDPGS

IC50 [3]: > 10000 nM
half-life [5]: 2.9 min
Cmax [6]: 391 ng/mL
AUC(0-t) at 24 h [9]: 1130 ng·h/mL
half-life [11]: 1.3 min
IC50 [12]: 3.2 nM
AUC(0-t) at 24 h [13]: 2610 ng·h/mL
IC50 [15]: 1760 nM
IC50 [16]: 3.1 nM
AUC(0-inf) [20]: 1200 ng·h/mL
Vd [21]: 0.77 L/kg
Structure (SMILES): CCn1c(=O)c2c(c3ccc(C)nc31)O[C@@](C)(CCO)C[C@H]2C=C(C)C
IC50 [1]: > 50000 nM
Activity (Mus musculus [2]): Active
Activity (Mus musculus [4]): Active
Activity (Mus musculus [7]): Active
Activity (Mus musculus [8]): Active
Activity (Mus musculus [10]): Dde
Activity (Mus musculus [14]): Dde
Activity (Mus musculus [17]): Active
Activity (Mus musculus [18]): Dde
Activity (Mus musculus [19]): Active
Activity [22]: Non-Toxic
